{"source": "paper PMC5816626", "about": "“A multitarget approach to drug discovery inhibiting Mycobacterium tuberculosis PyrG and PanK” (Scientific Reports, 2018)", "key": {"[1]": {"test_system": "M. tuberculosis H37Ra", "assay": "microbe, parasite or virus in culture", "type": "cell-based", "settings": "Mycobacterium tuberculosis, read-out: Growth inhibition at harvest (OD600)"}, "[2]": {"target": "M. tuberculosis PanK wild type (Mycobacterium tuberculosis, UniProt P9WPA7)", "sequence (P9WPA7 whole entry)": "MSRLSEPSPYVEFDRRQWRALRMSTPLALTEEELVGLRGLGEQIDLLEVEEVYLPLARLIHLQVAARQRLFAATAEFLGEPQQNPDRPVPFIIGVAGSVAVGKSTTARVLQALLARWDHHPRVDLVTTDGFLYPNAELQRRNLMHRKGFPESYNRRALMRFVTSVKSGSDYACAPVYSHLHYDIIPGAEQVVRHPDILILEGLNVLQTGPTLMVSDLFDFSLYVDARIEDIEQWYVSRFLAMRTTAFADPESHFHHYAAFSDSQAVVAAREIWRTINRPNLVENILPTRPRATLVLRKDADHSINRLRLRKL", "assay": "biochemical"}, "[3]": {"test_system": "M. tuberculosis PyrG", "set-up": "method as in PMID 26097035, PMID 28475832", "settings": "previously identified PyrG inhibitors; cited from earlier work"}, "[4]": {"test_system": "M. tuberculosis", "set-up": "method as in PMID 26097035, PMID 28475832", "settings": "known antitubercular activity; cited from earlier work"}, "[5]": {"test_system": "M. tuberculosis H37Rv", "assay": "MIC against M. tuberculosis H37Rv (wild type)", "type": "cell-based", "settings": "Mycobacterium tuberculosis; strain H37Rv"}, "[6]": {"target": "M. tuberculosis PanK (Mycobacterium tuberculosis, UniProt P9WPA7)", "sequence (P9WPA7 whole entry)": "as above", "assay": "PanK activity during incubation with prodrug and EthA", "type": "biochemical", "settings": "8 hours of incubation with EthA and NADPH, compound 0.3 mM"}, "[7]": {"test_system": "human cell lines", "set-up": "method as in PMID 26097035", "settings": "cited from earlier work"}}, "note": "“Also recorded” adds a separate entry of the source."}
{"smiles": "C[C@H]1COC2(CCN(c3nc(=O)c4cc(C(F)(F)F)cc([N+](=O)[O-])c4s3)CC2)O1", "note": "[BTZ043, reference compound]", "values": [{"measurement": "inhibition at 0.2 µg/mL", "setting": "[1]", "result": 23, "unit": "%"}]}
{"smiles": "O=C(CN1CCN(Cc2ccccc2)CC1)Nc1ccc([N+](=O)[O-])cc1C(=O)c1ccccc1", "note": "[CDD-823953, N-(2-benzoyl-4-nitrophenyl)-2-(4-benzylpiperazin-1-yl)acetamide]", "values": [{"measurement": "IC50", "setting": "[2]", "result": 250, "unit": "µM"}, {"measurement": "IC50", "setting": "[3]", "result": 80, "unit": "µM"}, {"measurement": "MIC", "setting": "[4]", "result": 4.39, "unit": "µM"}]}
{"smiles": "COc1ccc(-c2nnc(SCC(=O)Nc3ccc([N+](=O)[O-])cc3)o2)cc1", "note": "[CDD-934506, 2-((5-(4-methoxyphenyl)-1,3,4-oxadiazol-2-yl)sulfanyl)-N-(4-nitrophenyl)acetamide]", "values": [{"measurement": "IC50", "setting": "[2]", "result": 40, "unit": "µM"}, {"measurement": "PyrG IC50", "setting": "[3]", "result": "inactive; also recorded: n. i"}, {"measurement": "MIC", "setting": "[4]", "result": 0.87, "unit": "µM"}]}
{"smiles": "CCc1cc(C(N)=S)ccn1", "note": "[Ethionamide, reference compound]", "values": [{"measurement": "MIC", "setting": "[5]", "result": 1, "unit": "µg/mL"}]}
{"smiles": "c1ccc(-c2csc(Nc3nc4cc5c(cc4s3)OCO5)n2)nc1", "note": "[GSK735826A, N-(4-(pyridin-2-yl)thiazol-2-yl)-(1,3)dioxolo(4′,5′:4,5)benzo(1,2-d)thiazol-6-amine]", "values": [{"measurement": "IC50", "setting": "[2]", "result": 70, "unit": "µM"}, {"measurement": "Ki", "setting": "[2]; competitive inhibitor towards the ATP binding site", "result": "65.3 ± 4.33", "unit": "µM"}, {"measurement": "inhibition at 0.2 µg/mL", "setting": "[1]", "result": 66, "unit": "%"}, {"measurement": "IC50", "setting": "[3]", "result": 22, "unit": "µM"}, {"measurement": "MIC", "setting": "[4]", "result": 2.7, "unit": "µM"}]}
{"smiles": "O=C(COc1cccc(F)c1)Nc1nc(-c2ccccn2)cs1", "note": "[GSK920684A, 2-(3-fluorophenoxy)-N-(4-(pyridin-2-yl)thiazol-2-yl)acetamide]", "values": [{"measurement": "PanK IC50", "setting": "[2]", "result": "n. i."}, {"measurement": "inhibition at 0.2 µg/mL", "setting": "[1]", "result": 26, "unit": "%"}, {"measurement": "IC50", "setting": "[3]", "result": 22, "unit": "µM"}]}
{"smiles": "O=C(Cc1ccc(F)cc1)Nc1nc(-c2ccccn2)cs1", "note": "[GSK1570606A, 2-(4-fluorophenyl)-N-(4-(pyridin-2-yl)thiazol-2-yl)acetamide]", "values": [{"measurement": "PanK IC50", "setting": "[2]", "result": "n. i."}, {"measurement": "inhibition at 0.2 µg/mL", "setting": "[1]", "result": 37, "unit": "%"}, {"measurement": "IC50", "setting": "[3]", "result": 4.2, "unit": "µM"}, {"measurement": "MIC", "setting": "[4]", "result": 9.3, "unit": "µM"}]}
{"smiles": "O=C(CCc1ccccc1)NC(=S)Nc1ccc(N2CCCCC2)cc1", "note": "[compound 7904688, 3-phenyl-N-[(4-piperidin-1-ylphenyl)carbamothioyl]propanamide]", "values": [{"measurement": "MIC", "setting": "[5]", "result": 0.5, "unit": "µg/mL"}, {"measurement": "loss of PanK activity", "setting": "[6]", "result": "more than 90%"}, {"measurement": "toxicity against human cell lines", "setting": "[7]", "result": "very low toxicity"}]}
{"smiles": "Cc1ccc(C(=O)Nc2ccc([N+](=O)[O-])cc2)s1", "note": "[compound 7947882, 5-methyl-N-(4-nitrophenyl)thiophene-2-carboxamide]", "values": [{"measurement": "MIC", "setting": "[5]", "result": 0.5, "unit": "µg/mL"}, {"measurement": "loss of PanK activity", "setting": "[6]", "result": "more than 90%"}, {"measurement": "toxicity against human cell lines", "setting": "[7]", "result": "very low toxicity"}]}
{"smiles": "CC1=CC=C(C(=O)Nc2ccc([N+](=O)[O-])cc2)S1(=O)=O", "note": "[compound 11426026]", "values": [{"measurement": "MIC", "setting": "[5]", "result": 1, "unit": "µg/mL"}, {"measurement": "inhibition at 0.2 µg/mL", "setting": "[1]", "result": 83, "unit": "%"}]}
